In the NIST ThermoML archive (doi:10.1021/je0499364):
Numbers after ± are expanded uncertainties.

What was measured:
[1] = Crystal
[2] = Molar enthalpy of transition or fusion; settings: Crystal
[3] = molar heat capacity at constant pressure; settings: 101.33 kPa

CCCCCCCCCCCCCCCCCC(=O)OC [methyl octadecanoate]
Settings | Molar enthalpy of transition or fusion [kcal/mol] | Triple point temperature [K]
[1] | – | 311.84 ± 0.16
[2] | 15.86 ± 0.129 | –

[3]
Settings | molar heat capacity at constant pressure [J/K/mol]
5 K, Crystal | 0.82 ± 0.04
10 K, Crystal | 5.96 ± 0.12
20 K, Crystal | 26.2 ± 0.32
30 K, Crystal | 52.72 ± 0.3
40 K, Crystal | 82.6 ± 0.41
50 K, Crystal | 112.11 ± 0.53
60 K, Crystal | 137.8 ± 0.63
70 K, Crystal | 162.71 ± 0.73
80 K, Crystal | 182.89 ± 0.81
90 K, Crystal | 201.46 ± 0.8
100 K, Crystal | 217.35 ± 0.84
110 K, Crystal | 234.15 ± 0.87
120 K, Crystal | 248.17 ± 0.9
130 K, Crystal | 261.72 ± 0.92
140 K, Crystal | 274.54 ± 0.95
150 K, Crystal | 286.99 ± 0.97
160 K, Crystal | 299.33 ± 1
170 K, Crystal | 312.93 ± 1
180 K, Crystal | 327.18 ± 1.1
190 K, Crystal | 341.65 ± 1.1
200 K, Crystal | 354.7 ± 1.1
210 K, Crystal | 368.18 ± 1.1
220 K, Crystal | 382.77 ± 1.2
230 K, Crystal | 397.82 ± 1.2
240 K, Crystal | 413.11 ± 1.2
250 K, Crystal | 428.51 ± 1.3
260 K, Crystal | 446.92 ± 1.3
270 K, Crystal | 468.64 ± 1.3
280 K, Crystal | 497.34 ± 1.4
290 K, Crystal | 541.05 ± 1.5
320 K, Liquid | 639 ± 1.7
330 K, Liquid | 646.44 ± 1.7
340 K, Liquid | 655.14 ± 1.7
350 K, Liquid | 664.03 ± 1.7

CCCCCCCC(=O)OC [methyl octanoate]
Settings | Triple point temperature [K]
[1] | 236.2 ± 0.2

Settings | Molar enthalpy of transition or fusion [kcal/mol]
[2], Adiabatic calorimetry | 6.13 ± 0.122

[3]
Settings | molar heat capacity at constant pressure [J/K/mol]
5 K, Crystal | 0.38 ± 0.03
10 K, Crystal | 3.03 ± 0.07
20 K, Crystal | 18.19 ± 0.23
30 K, Crystal | 33.71 ± 0.22
40 K, Crystal | 50.53 ± 0.28
50 K, Crystal | 66.36 ± 0.35
60 K, Crystal | 79.75 ± 0.4
70 K, Crystal | 92.33 ± 0.45
80 K, Crystal | 103.39 ± 0.49
90 K, Crystal | 113.4 ± 0.63
100 K, Crystal | 122.25 ± 0.64
110 K, Crystal | 131.1 ± 0.66
120 K, Crystal | 138.74 ± 0.68
130 K, Crystal | 146.18 ± 0.69
140 K, Crystal | 153.44 ± 0.71
150 K, Crystal | 160.31 ± 0.72
160 K, Crystal | 167.13 ± 0.73
170 K, Crystal | 174.18 ± 0.75
180 K, Crystal | 181.34 ± 0.76
190 K, Crystal | 188.84 ± 0.78
200 K, Crystal | 196.94 ± 0.79
210 K, Crystal | 205.99 ± 0.81
220 K, Crystal | 217.68 ± 0.84
230 K, Crystal | 242.75 ± 0.89
240 K, Liquid | 301.67 ± 1
250 K, Liquid | 301.39 ± 1
260 K, Liquid | 303.17 ± 1
270 K, Liquid | 305.83 ± 1
280 K, Liquid | 308.83 ± 1
290 K, Liquid | 312.81 ± 1
300 K, Liquid | 316.17 ± 1
310 K, Liquid | 320.13 ± 1
320 K, Liquid | 323.19 ± 1.1
330 K, Liquid | 327.93 ± 1.1
340 K, Liquid | 332.21 ± 1.1
350 K, Liquid | 336.19 ± 1.1

CCCCCCCCCCCCCCC(=O)OC [methyl pentadecanoate]
Settings | Molar enthalpy of transition or fusion [kcal/mol] | Triple point temperature [K]
[1] | – | 292.35 ± 0.16
[2] | 12.97 ± 0.124 | –

[3]
Settings | molar heat capacity at constant pressure [J/K/mol]
5 K, Crystal | 0.5 ± 0.03
10 K, Crystal | 4.15 ± 0.09
20 K, Crystal | 21.13 ± 0.26
30 K, Crystal | 43.92 ± 0.26
40 K, Crystal | 71.36 ± 0.37
50 K, Crystal | 97.58 ± 0.47
60 K, Crystal | 120.37 ± 0.56
70 K, Crystal | 141.42 ± 0.65
80 K, Crystal | 159.35 ± 0.72
90 K, Crystal | 175.8 ± 0.75
100 K, Crystal | 190.15 ± 0.78
110 K, Crystal | 203.86 ± 0.81
120 K, Crystal | 216.45 ± 0.83
130 K, Crystal | 228.03 ± 0.86
140 K, Crystal | 239.15 ± 0.88
150 K, Crystal | 249.97 ± 0.9
160 K, Crystal | 260.57 ± 0.92
170 K, Crystal | 272.29 ± 0.94
180 K, Crystal | 282.1 ± 0.96
190 K, Crystal | 293.1 ± 0.99
200 K, Crystal | 304.43 ± 1
210 K, Crystal | 316.28 ± 1
220 K, Crystal | 328.72 ± 1.1
230 K, Crystal | 341.8 ± 1.1
240 K, Crystal | 355.9 ± 1.1
250 K, Crystal | 371.28 ± 1.1
260 K, Crystal | 387.35 ± 1.2
270 K, Crystal | 403.92 ± 1.2
280 K, Crystal | 432.13 ± 1.3
300 K, Liquid | 524.33 ± 1.4
310 K, Liquid | 534.12 ± 1.5
320 K, Liquid | 539.26 ± 1.5
330 K, Liquid | 544.8 ± 1.5
340 K, Liquid | 551.15 ± 1.5
